Consider nine molecules from patent publication US20250179051A1, “PYRIMIDINLY-OXY-QUINOLINE BASED HERBICIDAL COMPOUNDS” (SYNGENTA CROP PROTECTION AG, priority 2022, published 2025).

Holding throughout (assay type): in vivo
What all share (conditions): 250 g/ha, evaluated after 13 days, five-point scale

In experiment [1] the test system is Amaranthus palmeri (AMAPA). Description: Post-emergence herbicide glasshouse test. Summed up: (§1)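 Damage was rated 13 days after treatment on a five-point scale, 5 = 81–100% and 1 = 0–20%. Plants in soil pots were sprayed with compound in acetone/water (50:50) containing 0.5% Tween 20, at 250 g/ha unless otherwise stated. Pre-emergence treatment followed one day of cultivation; post-emergence treatment followed eight.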

The test system of experiment [2] is Setaria faberi (SETFA). The experiment is described as follows: Post-emergence herbicide glasshouse test. The essentials: as §1
For experiment [3], the system named is Echinochloa crus-galli (ECHCG). The experiment is described as follows: Post-emergence herbicide glasshouse test. Summed up:
as §1

Experiment [4] concerns Ipomoea hederacea (IPOHE). Description: Post-emergence herbicide glasshouse test. Summed up: as §1
The test system of experiment [5] is Amaranthus retoflexus (AMARE). The experiment is described as follows: Post-emergence herbicide glasshouse test. Summed up: as §1
For experiment [6], the system named is Amaranthus palmeri (AMAPA). The experiment is described as follows: Pre-emergence herbicide glasshouse test. The essentials:
as §1

Experiment [7] deals with Setaria faberi (SETFA). Description: Pre-emergence herbicide glasshouse test. The essentials:
as §1

Experiment [8] concerns Echinochloa crus-galli (ECHCG). The experiment is described as follows: Pre-emergence herbicide glasshouse test. Summed up:
as §1

Experiment [9] deals with Ipomoea hederacea (IPOHE). The experiment is described as follows: Pre-emergence herbicide glasshouse test. Summed up: as §1
Experiment [10] has as its system Amaranthus retoflexus (AMARE). The experiment is described as follows: Pre-emergence herbicide glasshouse test. The essentials: as §1

As for `CC(=O)N1CCC(CCc2nc(C(F)(F)F)nc3cccc(Oc4ncc(Cl)cn4)c23)CC1` [Compound 1.034], the “percentage damage caused to the plant, AMAPA” value in [1] is 4 (4=61-80%); in experiment [6] it was 3 (3=41-60%). The “percentage damage caused to the plant, SETFA” value in experiment [2] is 5 (5=81-100%); in experiment [7], 4 (4=61-80%). Further, the figures for the “percentage damage caused to the plant, ECHCG” value in experiment [3] and in experiment [8] were 4 (4=61-80%) and 2 (2=21-40%), respectively. Also, the “percentage damage caused to the plant, IPOHE” value in experiment [4] is given as 2 (2=21-40%); in experiment [9], 1 (1=0-20%). Besides, the “percentage damage caused to the plant, AMARE” value in [5] is recorded as 5 (5=81-100%); in experiment [10] it was 2 (2=21-40%).

Take `FC(F)c1cc(-c2nc(C(F)(F)F)nc3cccc(Oc4ncc(Cl)cn4)c23)on1` [Compound 1.035, 5-[5-(5-chloropyrimidin-2-yl)oxy-2-(trifluoromethyl)quinazolin-4-yl]-3-(difluoromethyl)isoxazole]: the “percentage damage caused to the plant, AMAPA” value is on record as 4 (4=61-80%) in experiment [1] and 5 (5=81-100%) in [6]. For the same molecule, the “percentage damage caused to the plant, SETFA” value in experiment [2] is given as 2 (2=21-40%); in experiment [7], 3 (3=41-60%). The “percentage damage caused to the plant, ECHCG” value was 1 (1=0-20%) in experiment [3] and 2 (2=21-40%) in [8]. The “percentage damage caused to the plant, IPOHE” value in [4] and in experiment [9] was 1 (1=0-20%) in each case. Moreover, the “percentage damage caused to the plant, AMARE” value in [5] is 4 (4=61-80%); in [10], 5 (5=81-100%).

Turning to `O=C(c1ccncc1)c1nc(C(F)(F)F)nc2cccc(Oc3ncc(Cl)cn3)c12` [Compound 1.036], the “percentage damage caused to the plant, AMAPA” value in experiment [1] is 3 (3=41-60%); in [6] it was 4 (4=61-80%). Also, the entries for the “percentage damage caused to the plant, SETFA” value in experiment [2] and in [7] were 1 (1=0-20%) and 3 (3=41-60%), respectively. Besides, the “percentage damage caused to the plant, ECHCG” value in [3] is listed as 1 (1=0-20%); in experiment [8], 3 (3=41-60%). For the same molecule, the “percentage damage caused to the plant, IPOHE” value in experiment [4] and in experiment [9] was 1 (1=0-20%) in each case. Further, the “percentage damage caused to the plant, AMARE” value in [5] and in [10] was 3 (3=41-60%) in each case.

For the molecule `OCC(O)CCc1nc(C(F)(F)F)nc2cccc(Oc3ncc(Cl)cn3)c12` (stereo not drawn) [Compound 1.037, 4-[5-(5-chloropyrimidin-2-yl)oxy-2-(trifluoromethyl)quinazolin-4-yl]butane-1,2-diol], the entries for the “percentage damage caused to the plant, AMAPA” value in [1] and in experiment [6] were 3 (3=41-60%) and 1 (1=0-20%), respectively. Moreover, the “percentage damage caused to the plant, SETFA” value in experiment [2] and in experiment [7] was 1 (1=0-20%) each time. Moreover, the “percentage damage caused to the plant, ECHCG” value in experiment [3] and in [8] was 1 (1=0-20%) each time. Also, the “percentage damage caused to the plant, IPOHE” value in experiment [4] and in [9] was 1 (1=0-20%) each time. The “percentage damage caused to the plant, AMARE” value in experiment [5] is 3 (3=41-60%); in [10], 1 (1=0-20%).

`O=CCCc1nc(C(F)(F)F)nc2cccc(Oc3ncc(Cl)cn3)c12` [Compound 1.038, 3-[5-(5-chloropyrimidin-2-yl)oxy-2-(trifluoromethyl)quinazolin-4-yl]propanal]: the results for the “percentage damage caused to the plant, AMAPA” value in experiment [1] and in experiment [6] were 3 (3=41-60%) and 1 (1=0-20%), respectively. Also, the “percentage damage caused to the plant, SETFA” value in experiment [2] and in experiment [7] was 1 (1=0-20%) in each case. For the same molecule, the “percentage damage caused to the plant, ECHCG” value in experiment [3] and in [8] was 1 (1=0-20%) in each case. Also, the “percentage damage caused to the plant, IPOHE” value was 3 (3=41-60%) in [4] and 1 (1=0-20%) in experiment [9]. Moreover, the “percentage damage caused to the plant, AMARE” value in [5] is 4 (4=61-80%); in [10] it was 2 (2=21-40%).

Take `OCCCc1nc(C(F)(F)F)nc2cccc(Oc3ncc(Cl)cn3)c12` [Compound 1.039, 3-[5-(5-chloropyrimidin-2-yl)oxy-2-(trifluoromethyl)quinazolin-4-yl]propan-1-ol]: the “percentage damage caused to the plant, AMAPA” value was 3 (3=41-60%) in experiment [1] and 2 (2=21-40%) in experiment [6]. For the same molecule, the “percentage damage caused to the plant, SETFA” value in [2] was 1 (1=0-20%); in [7], 2 (2=21-40%). The “percentage damage caused to the plant, ECHCG” value is recorded as 1 (1=0-20%) in experiment [3] and 2 (2=21-40%) in [8]. For the same molecule, the “percentage damage caused to the plant, IPOHE” value in experiment [4] was 3 (3=41-60%); in experiment [9] it was 1 (1=0-20%). In addition, the figures for the “percentage damage caused to the plant, AMARE” value in experiment [5] and in experiment [10] were 4 (4=61-80%) and 3 (3=41-60%), respectively.

As to `FC(F)(F)c1nc(C2CC2)c2c(Oc3ncc(Cl)cn3)cccc2n1` [Compound 1.041, 5-(5-chloropyrimidin-2-yl)oxy-4-cyclopropyl-2-(trifluoromethyl)quinazoline], the “percentage damage caused to the plant, AMAPA” value in experiment [1] and in experiment [6] was 5 (5=81-100%) each time. Also, the “percentage damage caused to the plant, SETFA” value in [2] and in [7] was 5 (5=81-100%) in each case. Further, the “percentage damage caused to the plant, ECHCG” value in experiment [3] and in experiment [8] was 3 (3=41-60%) each time. The “percentage damage caused to the plant, IPOHE” value in experiment [4] was 2 (2=21-40%); in experiment [9], 1 (1=0-20%). The “percentage damage caused to the plant, AMARE” value was 5 (5=81-100%) in experiment [5] and 2 (2=21-40%) in experiment [10].

For the molecule `FC(F)(F)c1nc(CCC2CCCCC2)c2c(Oc3ncc(Cl)cn3)cccc2n1` [Compound 1.045], the “percentage damage caused to the plant, AMAPA” value was 4 (4=61-80%) in [1] and 5 (5=81-100%) in [6]. The “percentage damage caused to the plant, SETFA” value in [2] is 2 (2=21-40%); in experiment [7], 4 (4=61-80%). The “percentage damage caused to the plant, ECHCG” value in [3] was 2 (2=21-40%); in [8] it was 4 (4=61-80%). For the same molecule, the entries for the “percentage damage caused to the plant, IPOHE” value in experiment [4] and in [9] were 3 (3=41-60%) and 1 (1=0-20%), respectively. Also, the “percentage damage caused to the plant, AMARE” value is listed as 4 (4=61-80%) in experiment [5] and 3 (3=41-60%) in experiment [10].

As for `CCO/N=C\CCc1nc(C(F)(F)F)nc2cccc(Oc3ncc(Cl)cn3)c12` [Compound 1.047], the “percentage damage caused to the plant, AMAPA” value in [1] and in experiment [6] was 4 (4=61-80%) throughout. Besides, the “percentage damage caused to the plant, SETFA” value in experiment [2] and in experiment [7] was 5 (5=81-100%) throughout. In addition, the “percentage damage caused to the plant, ECHCG” value in experiment [3] and in [8] was 5 (5=81-100%) in each case. In addition, the “percentage damage caused to the plant, IPOHE” value in [4] was 5 (5=81-100%); in experiment [9], 2 (2=21-40%). Also, the entries for the “percentage damage caused to the plant, AMARE” value in experiment [5] and in [10] were 5 (5=81-100%) and 4 (4=61-80%), respectively.
